This note sets out measurements from patent US20260347346A1, “SUBSTITUTED 6-(PYRIMIDIN-4-YL)QUINOLINE COMPOUNDS AS CYCLIN DEPENDENT KINASE INHIBITORS” (BeOne Medicines I GmbH, priority 2022, published 2026).

The pIC50 is the negative decadic logarithm of the IC50, by convention in mol/L.

Assay [1] has as its target CDK4/Cyclin D1 (Homo sapiens, UniProt P11802). Kind of assay: inhibition of CDK4/Cyclin D1 kinase, TR-FRET. In kind it is biochemical. Particulars: CDK4/Cyclin D1, 1 mM ATP, 0.15 μM Rb (Ser780)-biotin substrate, pH 7.0, 60 min preincubation, 120 min reaction, room temperature; read-out: CDK4D1 IC50. The method, then: (§1) Compounds disclosed herein were tested for inhibition of CDK4/Cyclin D1 or CDK6/Cyclin D3 kinase in an assay based on the time-resolved fluorescence-resonance energy transfer (TR-FRET) methodology. The assay was carried out in 384-well low volume black plates in a reaction mixture containing CDK4/Cyclin D1 or CDK6/Cyclin D3, 1 mM ATP, 0.15 μM Rb (Ser780)-biotin substrate and 0-10 μM compound in buffer containing 50 mM HEPES pH7.0, 0.02% NaN3, 0.01% BSA, 0.1 mM Orthovanadate, 50 mM MgCl2, 1 mM DTT and 0.005% Tween-20. The kinase was incubated with compound for 60 minutes at room temperature and the reaction was initiated by the addition of ATP and Rb (Ser780)-biotin substrate. After reaction at room temperature for 120 minutes, an equal volume of stop/detection solution was added according to the manufacture's instruction (Cisbio Bioassays). The stop/detection solution contained Streptavidin-XL665 and Anti-pRb (Ser780) mAb-Eu Cryptate in Detection buffer (Cisbio Bioassays). Plates were incubated at room temperature for 60 minutes, and the TR-FRET signals (ex337 nm, em665 nm/620 nm) were recorded on a PHERAstar FSX plate reader (BMG Labtech). The inhibition percentage of CDK4/Cyclin D1 or CDK6/Cyclin D3 kinase activity in presence of increasing concentrations of compounds was calculated based on the ratio of fluorescence at 665 nm to that at 620 nm. The IC50 for each compound was derived from fitting the data to the four-parameter logistic equation by Dotmatics.
A general note: In TR-FRET formats the signal depends on donor and acceptor labels being close together.

Assay [2] deals with CDK6/Cyclin D3 (Homo sapiens, UniProt Q00534). Kind of assay: inhibition of CDK6/Cyclin D3 kinase, TR-FRET. Particulars: CDK6/Cyclin D3, 1 mM ATP, 0.15 μM Rb (Ser780)-biotin substrate, pH 7.0, 60 min preincubation, 120 min reaction, room temperature; read-out: CDK6D3 IC50. In kind it is biochemical. Here is the method:
as §1

pIC50: −log10 of the molar value.

CDK4/Cyclin D1, sequence (P11802 whole entry): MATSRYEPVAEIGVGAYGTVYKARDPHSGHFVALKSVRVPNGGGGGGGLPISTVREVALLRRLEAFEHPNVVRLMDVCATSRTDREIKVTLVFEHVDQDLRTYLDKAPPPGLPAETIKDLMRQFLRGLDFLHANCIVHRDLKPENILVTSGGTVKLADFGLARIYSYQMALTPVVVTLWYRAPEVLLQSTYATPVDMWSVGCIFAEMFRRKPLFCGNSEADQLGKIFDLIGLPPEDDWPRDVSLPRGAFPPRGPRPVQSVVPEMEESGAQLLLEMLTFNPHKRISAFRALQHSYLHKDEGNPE
CDK4/Cyclin D1, sequence (P24385 whole entry partner): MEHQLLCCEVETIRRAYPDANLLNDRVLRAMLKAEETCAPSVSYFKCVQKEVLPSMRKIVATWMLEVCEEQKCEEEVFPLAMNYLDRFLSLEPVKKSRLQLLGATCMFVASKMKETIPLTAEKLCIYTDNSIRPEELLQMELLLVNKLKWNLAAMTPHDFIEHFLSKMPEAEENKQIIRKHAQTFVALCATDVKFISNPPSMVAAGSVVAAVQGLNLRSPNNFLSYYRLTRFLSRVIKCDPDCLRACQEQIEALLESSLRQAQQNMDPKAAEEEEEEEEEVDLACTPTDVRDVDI
CDK6/Cyclin D3, sequence (Q00534 whole entry): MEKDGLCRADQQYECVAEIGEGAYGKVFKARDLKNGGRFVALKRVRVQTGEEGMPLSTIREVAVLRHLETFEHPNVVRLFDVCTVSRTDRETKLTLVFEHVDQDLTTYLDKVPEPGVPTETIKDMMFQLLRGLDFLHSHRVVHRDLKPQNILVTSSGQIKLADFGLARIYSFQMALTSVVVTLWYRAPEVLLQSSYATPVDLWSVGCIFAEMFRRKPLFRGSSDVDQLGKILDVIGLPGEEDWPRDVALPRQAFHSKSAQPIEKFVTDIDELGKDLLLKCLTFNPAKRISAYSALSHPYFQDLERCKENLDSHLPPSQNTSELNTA
CDK6/Cyclin D3, sequence (P30281 whole entry partner): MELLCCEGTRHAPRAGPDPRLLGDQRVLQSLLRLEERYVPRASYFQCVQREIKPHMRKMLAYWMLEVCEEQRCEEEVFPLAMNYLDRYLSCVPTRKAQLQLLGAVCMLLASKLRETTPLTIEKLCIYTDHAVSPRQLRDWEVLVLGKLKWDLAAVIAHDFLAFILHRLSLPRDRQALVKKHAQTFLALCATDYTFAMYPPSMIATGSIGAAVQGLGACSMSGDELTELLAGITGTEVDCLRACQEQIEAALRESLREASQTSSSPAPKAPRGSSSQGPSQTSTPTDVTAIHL

Regarding `CC(C)(O)c1ccnc2c(F)cc(-c3nc(NC4CCNCC4)ncc3F)cc12` [Example A5, 2-(8-fluoro-6-(5-fluoro-2-(piperidin-4-ylamino)pyrimidin-4-yl)quinolin-4-yl) propan-2-ol], the negative logarithm of the IC50 (pIC50) was 7.08 in assay [1] and 6.66 in assay [2].
The like results for `Cc1cc(C(C)(C)O)c2cc(-c3nc(N[C@@H]4CCOC[C@H]4O)ncc3F)cc(F)c2n1` [Example A3, (3S,4R)-4-((5-fluoro-4-(8-fluoro-4-(2-hydroxypropan-2-yl)-2-methylquinolin-6-yl)pyrimidin-2-yl)amino)tetrahydro-2H-pyran-3-ol] were, in that order, 7.48 and 6.60.
The like results for `CC(C)(O)c1ccnc2c(F)cc(-c3nc(N[C@@H]4CCOC[C@H]4O)ncc3F)cc12` [Example A2, (3S,4R)-4-((5-fluoro-4-(8-fluoro-4-(2-hydroxypropan-2-yl)quinolin-6-yl)pyrimidin-2-yl)amino)tetrahydro-2H-pyran-3-ol] were, in that order, 7.92 and 7.08.
For `C[C@@H](N)c1ccnc2c(F)cc(-c3nc(N[C@@H]4CCOC[C@H]4O)ncc3F)cc12` [Example A7, (3S,4R)-4-((4-(4-((R)-1-aminoethyl)-8-fluoroquinolin-6-yl)-5-fluoropyrimidin-2-yl)amino)tetrahydro-2H-pyran-3-ol], the results for the pIC50 in assay [1] and in assay [2] were 7.01 and 5.62, respectively.
`CC(C)(C)OC(=O)N1CCC(Nc2ncc(F)c(-c3cc(F)c4nccc(C(C)(C)O)c4c3)n2)CC1` [Example A4, tert-butyl 4-((5-fluoro-4-(8-fluoro-4-(2-hydroxypropan-2-yl)quinolin-6-yl)pyrimidin-2-yl)amino) piperidine-1-carboxylate]: the pIC50 in assay [1] is 6.77; in assay [2], 5.77.
Taken in the same sequence, the figures for `C[C@H](N)c1ccnc2c(F)cc(-c3nc(N[C@@H]4CCOC[C@H]4O)ncc3F)cc12` [Example A6, (3S,4R)-4-((4-(4-((S)-1-aminoethyl)-8-fluoroquinolin-6-yl)-5-fluoropyrimidin-2-yl)amino)tetrahydro-2H-pyran-3-ol] were 7.49 and 6.12.
The like results for `COC(=O)c1ccnc2c(F)cc(-c3nc(N[C@@H]4CCOC[C@H]4O)ncc3F)cc12` [Example A1, methyl 8-fluoro-6-(5-fluoro-2-(((3S,4R)-3-hydroxytetrahydro-2H-pyran-4-yl)amino)pyrimidin-4-yl) quinoline-4-carboxylate] were, in that order, 6.91 and 6.16.
